# In US20120022121A1, “INDOLES, DERIVATIVES AND ANALOGS THEREOF AND USES THEREFOR” (priority 2007, published 2012):
# “Also recorded” adds a separate entry of the source.
# Experiments:
# Rotarod performance = format: in vivo, ICR mice
# Procedure: The training and rotarod test was conducted as described previously. Briefly, during the training phase for 2 consecutive days (3 trials/day), mice (10 mice/group) were trained to run in a rotarod apparatus without falling at a constant speed (12 rpm) for a maximum of 2 min. For the rotarod performance test, duration of each trial was less than 5 min. […] Tests were performed for 2 weeks (2 days/week). The animals were tested in three trials per day with an intertrial interval of 30 min. Animal performance was recorded as the average elapsed time for the mice to fall off.
# MES-SA = test: Growth inhibition assay (96 h); format: cell-based; conditions: Homo sapiens, MES-SA (parental)
# Description: (§1) MTT (3-(4,5-dimethylthiazol-2-yl)-2,5-diphenyltetrazolium bromide) assay was also used for the leukemia cell lines. […] Cells were stained with SRB solution or MTT solution.
# HEK293-482R2 = test: Growth inhibition assay (96 h); format: cell-based, human
# Bcl-2 = test: Western blot of Bcl-2 phosphorylation; format: cell-based, human; conditions: PC-3 cells, 24 h, immunoblot of pBcl-2
# Procedure: Treated cells were lysed in cold lysis buffer (20 mM Tris-HCl, pH 7.5, 150 mM NaCl, 1 mM Na2 EDTA, 1% Triton x-100, and freshly added Na3VO4 (2 mM), NaF (20 mM) and complete protease inhibitor cocktail). For each sample, an aliquot (20 to 40 μg) of total protein was loaded and run on a SDS-Page gel. Protein was transferred to nitrocellulose membranes (Bio-Rad Laboratories, Hercules, Calif.), blocked with 5% non-fat milk, incubated with primary antibody overnight at 4° C., and then incubated with secondary antibody at rt for 1 h. ECL™ (GE Healthcare Bio-Sciences Corp., Piscataway, N.J.) was used for detection. The band intensity was measured by densitometry using TotalLab TL100 Software v2006 (Nonlinear Dynamics Ltd., Newcastle upon Tyne, UK).
# HEK293-MRP1 = test: Growth inhibition assay (96 h); format: cell-based, human; conditions: HEK293-MRP1 vs HEK293-pcDNA3.1
# [1] = test system: MRP1 (over-expressed in the cells); test: Growth inhibition assay (96 h); format: cell-based, human; conditions: human, HEK293 cells over-expressing MRP1 (HEK293-MRP1); HEK293-MRP1, MRP1 over-expressed, 96 h
# HEK293-MRP2 = test: Growth inhibition assay (96 h); format: cell-based, human; conditions: HEK293-MRP2 vs HEK293-pcDNA3.1
# [2] = test system: MRP2 (over-expressed in the cells); test: Growth inhibition assay (96 h); format: cell-based, human; conditions: human, HEK293 cells over-expressing MRP2 (HEK293-MRP2); HEK293-MRP2, MRP2 over-expressed, 96 h
# MES-SA/DX5 = test: Growth inhibition assay (96 h); format: cell-based, human; conditions: for resistance factor (ratio of IC50 resistant subline to parental cell line): MES-SA/DX5 vs MES-SA (P-gp)
# Description: as §1
# HEK293-pcDNA3.1 = test: Growth inhibition assay (96 h); format: cell-based, human; conditions: Homo sapiens, HEK293-pcDNA3.1 (control for MRP)
# Description: as §1
# PC-3 = test: Growth inhibition assay (SRB, 96 h); format: cell-based, human; conditions: PC-3, 96 h
# Description: as §1
# MES-SA/DX5 xenografts = test: In vivo antitumor efficacy, MES-SA/DX5 xenograft; conditions: for TGI (tumor growth inhibition): MES-SA/DX5 xenograft, q2d, i.p.
# Procedure: (§2) The control group was treated with vehicle (10% DMSO in PEG300).
# [3] = test system: human cancer cell lines from prostate, colon, breast, and bladder; test: Cell proliferation by SRB assay, panel of cell lines; format: cell-based; conditions: read-out: IC50 values, range over cell lines
# Procedure: as §1
# Cell proliferation was measured by SRB assay.
# MES-SA xenografts = test: In vivo antitumor efficacy, MES-SA xenograft; parameters: species or system mice; conditions: q2d, i.p.
# Procedure: as §2
# tubulin [4] = test system: T1, tubulin; test: In vitro binding assay by spin column; parameters: species or system bovine; conditions: vinblastine-binding site, 37° C., 1 h
# T1 construct: IC50 of microtubule formation (tubulin polymerization); other: cell free, turbidity 340 nm, 40 min
# tubulin [5] = test: In vitro binding assay by spin column; parameters: species or system bovine; conditions: colchicine-binding site, 37° C., 1 h
# [6] = Subchronic toxicity in ICR mice; format: in vivo
# Description: The maximally tolerated dose (MTD) in the mouse was identified. […] Body weight changes and morbidity in treated animals were used as a direct measure of toxicity.
smiles,measurement,setting,value
"COc1cc(C(=O)c2cccc(-c3cc4ccccc4[nH]3)c2)cc(OC)c1OC [Compound 68, [3-(1H-Indol-2-yl)-phenyl]-(3,4,5-trimethoxy-phenyl)-methanone]",rotarod performance,"Rotarod performance; 10 mg/kg i.p. q2d, 2 weeks, vs vehicle control",did not show impaired rotarod performance; also recorded: no loss of function
same,IC50,MES-SA,31.5 ± 2.9 nM
same,resistance factor (ratio of IC50 resistant subline to parental cell line),HEK293-482R2; HEK293-482R2 (BCRP) vs HEK293-pcDNA3-10,(1.0)
same,IC50,"HEK293-482R2; Homo sapiens, HEK293-482R2, BCRP over-expressed, 96 h",13.6 ± 1.3 nM
same,concentration that induced phosphorylation (Ser70) of Bcl-2,Bcl-2,50 nM
same,resistance factor (ratio of IC50 resistant subline to parental cell line),HEK293-MRP1,(1.3)
same,IC50 at 96 h,[1],30.4 ± 6.4 nM
same,resistance factor (ratio of IC50 resistant subline to parental cell line),HEK293-MRP2,(1.3)
same,IC50 at 96 h,[2],31.5 ± 8 nM
same,IC50,"MES-SA/DX5; Homo sapiens, MES-SA/DX5, P-gp over-expressed, 96 h",32.3 ± 8.2 nM
same,resistance factor (ratio of IC50 resistant subline to parental cell line),MES-SA/DX5,(1.0)
same,IC50,HEK293-pcDNA3.1,23.8 ± 1.7 nM
same,IC50,PC-3; Homo sapiens,28 nM
same,IC50,PC-3,28.2 ± 2 nM
same,general toxicity and body weight loss,"MES-SA/DX5 xenografts; MES-SA and MES-SA/DX5 xenograft mice, 5 or 10 mg/kg",did not induce any general toxicity or significant body weight loss
same,TGI (tumor growth inhibition),MES-SA/DX5 xenografts; 5 mg/kg,47%
same,TGI (tumor growth inhibition),MES-SA/DX5 xenografts; 10 mg/kg,76%
same,IC50,[3],15.1 to 39.2 nM
same,TGI (tumor growth inhibition),MES-SA xenografts; 5 mg/kg,47%
same,TGI (tumor growth inhibition),MES-SA xenografts; 10 mg/kg,74%
same,displacement of [3H]vinblastine from tubulin,tubulin [4],not able to displace
same,[3H]podophyllotoxin binding to tubulin,tubulin [5],inhibited
"O=C(c1cccc(-c2cc3ccccc3[nH]2)c1)c1cc2ccccc2[nH]1 [Compound 13, (1H-indol-2-yl)-[3-(1H-indol-2-yl)phenyl]methanone]",tolerability,"[6]; 50, 100 and 200 mg/kg S.C., 4 weeks, 5-days on/2 days off",generally well tolerated
same,morbidity or rate of gain in body weight vs control,"[6]; 50 or 100 mg/kg S.C., 4 weeks",no significant difference
same,less body weight gain as compared to control animals,"[6]; highest dose (200 mg/kg) S.C., 4-week treatment",20%
CC[C@]1(O)C[C@@H]2CN(CCc3c([nH]c4ccccc34)[C@@](C(=O)OC)(c3cc4c(cc3OC)N(C)[C@H]3[C@@](O)(C(=O)OC)[C@H](OC(C)=O)[C@]5(CC)C=CCN6CC[C@]43[C@@H]65)C2)C1 [Vinblastine],rotarod performance,"Rotarod performance; 0.5 mg/kg i.p. q2d, day 4 to day 14",impaired performance
same,mean time on the rotating rod,"Rotarod performance; 0.5 mg/kg i.p. q2d, end of 2 weeks (vehicle 151 s)",121 s
same,concentration that induced phosphorylation (Ser70) of Bcl-2,Bcl-2,5 nM
same,resistance factor (ratio of IC50 resistant subline to parental cell line),HEK293-MRP1,(4.9)
same,resistance factor (ratio of IC50 resistant subline to parental cell line),HEK293-MRP1; listed as vinblastine,4.9
same,IC50 at 96 h,[1],24.3 ± 2 nM
same,resistance factor (ratio of IC50 resistant subline to parental cell line),HEK293-MRP2,(3.7)
same,resistance factor (ratio of IC50 resistant subline to parental cell line),HEK293-MRP2; listed as vinblastine,3.7
same,IC50 at 96 h,[2],18.1 ± 4 nM
same,resistance factor (ratio of IC50 resistant subline to parental cell line),MES-SA/DX5,(20)
same,IC50,HEK293-pcDNA3.1,5 ± 1 nM
same,IC50,PC-3; Homo sapiens,1 nM
same,TGI (tumor growth inhibition),MES-SA/DX5 xenografts; 0.5 mg/kg,24%
same,IC50,[3],1.1 to 6.3 nM
same,TGI (tumor growth inhibition),MES-SA xenografts; 0.5 mg/kg,48%
